The record followed here is patent US12552790B2, “Positive modulators of the muscarinic acetylcholine receptor M4” (Vanderbilt University, priority 2023, dated 2026).

In one test the target is T1, Human M4 (Homo sapiens, UniProt P08173).
T1 construct: expressed in transfected cells
T1 sequence (P08173 1-479): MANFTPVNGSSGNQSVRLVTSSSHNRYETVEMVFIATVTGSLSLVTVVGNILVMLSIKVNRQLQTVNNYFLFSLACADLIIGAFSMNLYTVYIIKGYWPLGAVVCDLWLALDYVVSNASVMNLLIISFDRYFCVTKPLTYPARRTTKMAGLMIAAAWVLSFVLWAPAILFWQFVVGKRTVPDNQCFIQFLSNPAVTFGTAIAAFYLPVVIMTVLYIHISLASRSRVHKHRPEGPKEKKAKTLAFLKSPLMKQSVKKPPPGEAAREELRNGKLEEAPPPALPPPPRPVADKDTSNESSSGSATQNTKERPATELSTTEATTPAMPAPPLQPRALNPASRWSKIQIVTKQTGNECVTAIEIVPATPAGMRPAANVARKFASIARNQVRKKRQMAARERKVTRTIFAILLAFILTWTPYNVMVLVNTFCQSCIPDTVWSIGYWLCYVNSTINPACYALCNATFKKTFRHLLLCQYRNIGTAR
In words: M4 cell-based functional assay, calcium mobilization, potentiation of ACh EC20. The settings on record: for Emax at 30 µM: % ACh maximum at 30 μM; for EC50: CHO-K1 hM4-Gqi5 cells, calcium flux, ACh EC20. How it is done:
Human and rat M4 cDNAs, along with the chimeric G protein Gqi5, were transfected into Chinese hamster ovary (CHO-K1) cells purchased from the American Type Culture Collection using Lipofectamine2000. The transfected cells were subjected to selection antbiotic treatment to generate stable cell lines; G418 sulfate (1 mg/ml) for selecting M4 expressing cells and Hygromycin B (500 μg/mL) for selecting Gqi5 expressing cells. The resulting polyclones were further screened to obtain monoclones of hM4-Gqi5 and rM4-Gqi5 for compound screening assay. Stable monoclone cells were maintained in Ham's F-12 medium containing 10% heat-inactivated fetal bovine serum (FBS), 1× Antibiotic/Antimycotic, 20 mM HEPES, 500 μg/mL G418 sulfate, and 200 μg/mL Hygromycin B in 37° C. humidified incubators in the presence of 5% CO2.
(§1) The high throughput assay was employed to measure receptor-induced mobilization of intracellular calcium to determine compound activity. Test compound was added to cells expressing the muscarinic receptors that were loaded with calcium sensitive fluorescent dye. After a ˜2.5 minute incubation period, a submaximal (EC20) concentration of acetylcholine was added, and the response measured. This kinetic assay allows for simultaneous screening and potency determination of multiple pharmacological modes of action including agonist and potentiator activity. CHO-K1 cells stably expressing muscarinic receptors were plated in growth medium lacking G418 and hygromycin at 15,000 cells/20 μL/well in Greiner 384-well black-walled, tissue culture (TC)-treated, clear-bottom plates (Greiner Bio-One). Cells were incubated overnight at 37° C. and 5% CO2. The next day, calcium assay buffer (Hank's balanced salt solution (HBSS), 20 mM HEPES, 2.5 mM Probenecid, 4.16 mM sodium bicarbonate (Sigma-Aldrich, St. Louis, MO)) was prepared to dilute compounds, agonists, and Fluo-4-acetomethoxyester (Fluo-4-AM), fluorescent calcium indicator dye. Compounds were serially diluted 1:3 into 10 point concentration response curves in DMSO using the Bravo Liquid Handler (Agilent, Santa Clara, CA), transferred to a 384 well daughter plates using an Echo acoustic liquid handler (Beckman Coulter, Indianapolis, Indiana), and diluted in assay Buffer to a 2× final concentration. The agonist plates were prepared using acetylcholine (ACh, Sigma-Aldrich, St. Louis, MO) concentrations for the EC20 and ECMAX responses by diluting in assay buffer to a 5× final concentration. The 2× dye solution (2.3 μM) was prepared by mixing a 2.3 mM Fluo-4-AM stock in DMSO with 10% (w/v) pluronic acid F-127 in a 1:1 ratio in assay buffer. Using a microplate washer (BioTek, Winooski, VT), cells were washed with assay buffer for 3 times to remove medium. After the final wash, 20 μL of assay buffer remained in the cell plates. Immediately, 20 μL of the 2× dye solution (final 1.15 μM) was added to each well of the cell plate using a Multidrop Combi dispenser (Thermo Fisher, Waltham, MA). After cells were incubated with the dye solutions for 45 min at 37° C. in the presence of 5% CO2, the dye solutions were removed and replaced with assay buffer using a microplate washer, leaving 20 μL of assay buffer in the cell plate.
The prepared compound, agonist, and cell plates were placed inside the Functional Drug Screening System uCell (FDSS uCell, Hamamatsu, Japan) to measure the calcium flux. The triple add protocol was used to measure Ca kinetics; Compound, ACh for EC20, and ACh for EC80 adds in an order. Briefly, after establishment of a fluorescence baseline for 2 seconds (excitation, 480 nm; emission, 530 nm), first add occurred by adding 20 μL of test compound to the cells, and the response was measured for 140 seconds. This is followed by second add; 10 μL (5×) of an EC20 concentration of ACh agonist was added to the cells, and the response of the cells was measured for 125 seconds. […]
A general note: Calcium flux is commonly read through the fluorescence of an indicator in the cells.

The target in the next test is T2, Human M2 (Homo sapiens, UniProt P08172).
T2 construct: expressed in transfected cells; host or cells: CHO-K1
T2 sequence (P08172 1-466): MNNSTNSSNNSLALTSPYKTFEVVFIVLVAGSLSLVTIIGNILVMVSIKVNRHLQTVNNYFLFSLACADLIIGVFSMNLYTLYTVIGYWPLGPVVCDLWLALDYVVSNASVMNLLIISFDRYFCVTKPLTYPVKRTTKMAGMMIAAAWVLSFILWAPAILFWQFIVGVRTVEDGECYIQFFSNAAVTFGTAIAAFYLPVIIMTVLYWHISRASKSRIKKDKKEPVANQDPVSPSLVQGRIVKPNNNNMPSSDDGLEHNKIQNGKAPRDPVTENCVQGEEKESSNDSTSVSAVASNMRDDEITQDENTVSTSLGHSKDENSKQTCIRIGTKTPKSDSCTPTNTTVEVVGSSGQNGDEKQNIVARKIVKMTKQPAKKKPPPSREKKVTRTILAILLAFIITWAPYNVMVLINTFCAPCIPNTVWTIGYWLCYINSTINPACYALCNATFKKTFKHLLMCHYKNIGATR
The experiment in a line: M2 cell-based functional assay, calcium mobilization (selectivity). Conditions: for Emax at 30 µM: % ACh maximum at 30 μM; for EC50 / Human M2 EC50: M2 cell-based functional assay, calcium flux. How it is done:
as §1
The prepared compound, agonist, and cell plates were placed inside the Functional Drug Screening System uCell (FDSS uCell, Hamamatsu, Japan) to measure the calcium flux. The triple add protocol was used to measure Ca kinetics; Compound, ACh for EC20, and ACh for EC80 adds in an order. Briefly, after establishment of a fluorescence baseline for 2 seconds (excitation, 480 nm; emission, 530 nm), first add occurred by adding 20 μL of test compound to the cells, and the response was measured for 140 seconds. This is followed by second add; 10 μL (5×) of an EC20 concentration of ACh agonist was added to the cells, and the response of the cells was measured for 125 seconds. Immediately, the third add occurred by adding […] (5×) of an EC80 concentration of ACh and the response of the cells was measured for 90 seconds. Acetylcholine-mediated maximum response (ECmax) was measured by adding 1 mM ACh as third add in the control wells. DMSO vehicle was added to the control wells in the first add for assessing ACh EC20, EC80, and ECmax responses. Calcium fluorescence was recorded as fold over basal fluorescence and raw data were normalized to the maximal response to ACh agonist. Agonist activity was analyzed as a concentration-dependent increase in calcium mobilization upon compound addition. Positive allosteric modulator activity was analyzed as a concentration-dependent increase in the EC20 acetylcholine response. Antagonist activity was analyzed as a concentration-dependent decrease in the EC80 acetylcholine response. […]

As to `[2H]C1([2H])Oc2ccc(OC3CCN(c4nc5nn(CC)c(=O)n5cc4C)CC3)cc2OC1([2H])[2H]` [Compound A2, 7-(4-((2,3-dihydrobenzo[b][1,4]dioxin-6-yl-2,2,3,3-d4)oxy)piperidin-1-yl)-2-ethyl-6-methyl-[1,2,4]triazolo[4,3-a]pyrimidin-3(2H)-one], on Human M4, the Emax (usually the maximal effect, on the per cent scale that the assay sets) at 30 µM came out at 82% and the EC50 (commonly the midpoint of the concentration-response curve) was found to be 2 nM. At Human M2, the maximal effect (Emax) at 30 µM was determined as 70% and the EC50 worked out at 884 nM.

With `[2H]C([2H])([2H])n1nc2nc(N3CCC(Oc4ccc5c(c4)OC([2H])([2H])C([2H])([2H])O5)CC3)c(C)c(C3CC3)n2c1=O` [Compound A13, 5-cyclopropyl-7-(4-((2,3-dihydrobenzo[b][1,4]dioxin-6-yl-2,2,3,3-d4)oxy)piperidin-1-yl)-6-methyl-2-(methyl-d3)-[1,2,4]triazolo[4,3-a]pyrimidin-3(2H)-one], on Human M4, the Emax at 30 µM worked out at 103% and the EC50 was 28 nM. In addition, on Human M2, the “Human M2 EC50” value is listed as “Inactive”.

Take `[2H]C1([2H])Oc2ccc(OC3CCN(c4nc5nn(C)c(=O)n5c(C5CC5)c4C)CC3)cc2OC1([2H])[2H]` [Compound A12, 5-cyclopropyl-7-(4-((2,3-dihydrobenzo[b][1,4]dioxin-6-yl-2,2,3,3-d4)oxy)piperidin-1-yl)-2,6-dimethyl-[1,2,4]triazolo[4,3-a]pyrimidin-3(2H)-one]: at Human M4, the maximum response (Emax) at 30 µM turned out to be 103% and the EC50 turned out to be 32 nM. For the same compound, the “Human M2 EC50” value on Human M2 was “Inactive”.

Regarding `[2H]C1([2H])Oc2ccc(OC3CCN(c4nc5nn(C)c(=O)n5c(Cl)c4C)CC3)cc2OC1([2H])[2H]` [Compound A11, 5-chloro-7-(4-((2,3-dihydrobenzo[b][1,4]dioxin-6-yl-2,2,3,3-d4)oxy)piperidin-1-yl)-2,6-dimethyl-[1,2,4]triazolo[4,3-a]pyrimidin-3(2H)-one], on Human M4, the Emax at 30 µM was found to be 90% and the EC50 was 12 nM. At Human M2, the maximal response (Emax) at 30 µM is 57% and the concentration giving a half-maximal response (EC50) amounted to 6090 nM.

Take `[2H]C1([2H])Oc2ccc(OC3CCN(c4nc5n[nH]c(=O)n5cc4C)CC3)cc2OC1([2H])[2H]` [Compound A1, 7-(4-((2,3-dihydrobenzo[b][1,4]dioxin-6-yl-2,2,3,3-d4)oxy)piperidin-1-yl)-6-methyl-[1,2,4]triazolo[4,3-a]pyrimidin-3(2H)-one]: on Human M4, the maximum response (Emax) at 30 µM came out at 100% and the concentration for a half-maximal effect (EC50) amounted to 5 nM. In addition, at Human M2, the maximal response (Emax) at 30 µM was determined as 78% and the EC50 came to 367 nM.

For the compound `[2H]C1([2H])Oc2ccc(OC3CCN(c4nc5n[nH]c(=O)n5c5c4CCC5)CC3)cc2OC1([2H])[2H]` [Compound A16, 5-(4-((2,3-dihydrobenzo[b][1,4]dioxin-6-yl-2,2,3,3-d4)oxy)piperidin-1-yl)-2,6,7,8-tetrahydro-1H-cyclopenta[e][1,2,4]triazolo[4,3-a]pyrimidin-1-one], on Human M4, the Emax at 30 µM is 84% and the 50% effective concentration (EC50) was determined as 4 nM. Also, at Human M2, the Emax at 30 µM was determined as 48% and the EC50 was 2860 nM.

Turning to `[2H]C1([2H])Oc2ccc(OC3CCN(c4nc5nn(CCOC)c(=O)n5cc4C)CC3)cc2OC1([2H])[2H]` [Compound A3, 7-(4-((2,3-dihydrobenzo[b][1,4]dioxin-6-yl-2,2,3,3-d4)oxy)piperidin-1-yl)-2-(2-methoxyethyl)-6-methyl-[1,2,4]triazolo[4,3-a]pyrimidin-3(2H)-one], the values for the Emax at 30 µM at Human M4 and on Human M2 were 79% and 55%, respectively. In addition, the EC50 at Human M4 is 8 nM; at Human M2, 5410 nM.

Take `[2H]C1([2H])Oc2ccc(OC3CCN(c4nc5c(c(C)c4C)C(=O)N(C)C5)CC3)cc2OC1([2H])[2H]` [Compound 12, 2-(4-((2,3-dihydrobenzo[b][1,4]dioxin-6-yl-2,2,3,3-d4)oxy)piperidin-1-yl)-3,4,6-trimethyl-6,7-dihydro-5H-pyrrolo[3,4-b]pyridin-5-one]: at Human M4, the maximal response (Emax) at 30 µM turned out to be 103% and the 50% effective concentration (EC50) stood at 7 nM. On Human M2, the Emax at 30 µM came to 54% and the EC50 came to 2380 nM.

Turning to `[2H]C1([2H])Oc2ccc(OC3CCN(c4nc5c(cc4C)C(=O)N(C4CC4)C5)CC3)cc2OC1([2H])[2H]` [Compound 6, 6-cyclopropyl-2-(4-((2,3-dihydrobenzo[b][1,4]dioxin-6-yl-2,2,3,3-d4)oxy)piperidin-1-yl)-3-methyl-6,7-dihydro-5H-pyrrolo[3,4-b]pyridin-5-one], at Human M4, the maximal effect (Emax) at 30 µM came to 78% and the EC50 is 9 nM. On Human M2, the maximum response (Emax) at 30 µM came to 64% and the 50% effective concentration (EC50) was 867 nM.

For `[2H]C1([2H])Oc2ccc(OC3CCN(c4nc5n[nH]c(=O)n5c(C)c4C)CC3)cc2OC1([2H])[2H]` [Compound A9, 7-(4-((2,3-dihydrobenzo[b][1,4]dioxin-6-yl-2,2,3,3-d4)oxy)piperidin-1-yl)-5,6-dimethyl-[1,2,4]triazolo[4,3-a]pyrimidin-3(2H)-one], at Human M4, the maximum response (Emax) at 30 µM was found to be 79% and the half-maximal effective concentration (EC50) was found to be 5 nM. Besides, at Human M2, the maximum response (Emax) at 30 µM is 45% and the EC50 is 839 nM.
